From patent US9359322B2, “C-linked glucuronide of N-(4-hydroxybenzyl) retinone, analogs thereof, and methods of using the same to inhibit neoplastic cell growth” (Wisconsin Alumni Research Foundation, priority 2005, dated 2016)
Marks after values point to notes of the source that are not given here.

Assays:
RARβ = biological target: T1, RARβ (Homo sapiens, UniProt P10826); test: Nuclear retinoid receptor binding assay, competition with [3H]all-trans RA; conditions: FIG. 3A
T1 sequence (P10826 1-455): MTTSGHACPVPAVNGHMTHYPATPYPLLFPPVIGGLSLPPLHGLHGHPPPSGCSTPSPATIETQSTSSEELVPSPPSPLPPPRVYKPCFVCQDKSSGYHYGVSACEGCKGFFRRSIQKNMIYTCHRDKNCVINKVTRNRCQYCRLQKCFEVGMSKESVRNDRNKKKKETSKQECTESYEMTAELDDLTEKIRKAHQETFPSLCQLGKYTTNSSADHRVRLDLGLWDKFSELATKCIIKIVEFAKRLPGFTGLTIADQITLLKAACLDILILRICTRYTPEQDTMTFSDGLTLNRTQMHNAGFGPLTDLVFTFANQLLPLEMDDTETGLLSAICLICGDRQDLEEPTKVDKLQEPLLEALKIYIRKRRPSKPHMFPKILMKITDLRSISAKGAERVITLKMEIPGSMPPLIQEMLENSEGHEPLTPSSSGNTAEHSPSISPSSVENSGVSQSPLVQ
Protocol: (§1) Nuclear Retinoid Receptor Binding Assay. Competition of 3 and 7 and 4-HBRCGlucose with [^3H]-all-trans-RA (4.2-4.6 nM) for binding to RARβ and RARγ and with [^3H]-9-cis RA (1.9 nM) for binding to RXRγ was determined using an in vitro ligand binding assay.^41, 42 [^3H]-all-trans-RA (40.5 Ci/mmole) or [^3H]-9-cis-RA (69.4 Ci/mmole) was added to receptor-containing extracts in the absence and presence of increasing concentrations of competing ligands at 4° C. for 3 hr. A hydroxylapatite (HAP) assay was used to separate ligand bound to receptor from that free in solution, and the radioactivity associated with the HAP pellet was measured by scintillation counting.

RARγ = biological target: T2, RARγ (Homo sapiens, UniProt P13631); test: as above; conditions: FIG. 3B
T2 sequence (P13631 1-454): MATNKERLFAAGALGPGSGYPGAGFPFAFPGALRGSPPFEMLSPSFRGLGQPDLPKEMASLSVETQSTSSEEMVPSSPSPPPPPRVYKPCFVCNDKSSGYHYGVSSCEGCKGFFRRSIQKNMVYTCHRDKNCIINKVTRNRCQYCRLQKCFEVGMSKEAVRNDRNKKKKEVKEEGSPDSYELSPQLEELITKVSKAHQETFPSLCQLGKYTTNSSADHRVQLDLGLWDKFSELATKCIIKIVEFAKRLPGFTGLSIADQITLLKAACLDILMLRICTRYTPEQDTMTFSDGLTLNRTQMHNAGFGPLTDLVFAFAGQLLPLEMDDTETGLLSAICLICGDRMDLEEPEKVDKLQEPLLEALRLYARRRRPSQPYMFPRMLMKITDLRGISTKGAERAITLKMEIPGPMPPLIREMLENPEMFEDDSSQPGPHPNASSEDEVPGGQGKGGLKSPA
Protocol: as §1

RARα = biological target: T3, RARα (Homo sapiens, UniProt P10276); test: Nuclear retinoid receptor binding assay; conditions: 4-HBRCG up to 10^−4.5 M; data not shown
T3 sequence (P10276 1-462): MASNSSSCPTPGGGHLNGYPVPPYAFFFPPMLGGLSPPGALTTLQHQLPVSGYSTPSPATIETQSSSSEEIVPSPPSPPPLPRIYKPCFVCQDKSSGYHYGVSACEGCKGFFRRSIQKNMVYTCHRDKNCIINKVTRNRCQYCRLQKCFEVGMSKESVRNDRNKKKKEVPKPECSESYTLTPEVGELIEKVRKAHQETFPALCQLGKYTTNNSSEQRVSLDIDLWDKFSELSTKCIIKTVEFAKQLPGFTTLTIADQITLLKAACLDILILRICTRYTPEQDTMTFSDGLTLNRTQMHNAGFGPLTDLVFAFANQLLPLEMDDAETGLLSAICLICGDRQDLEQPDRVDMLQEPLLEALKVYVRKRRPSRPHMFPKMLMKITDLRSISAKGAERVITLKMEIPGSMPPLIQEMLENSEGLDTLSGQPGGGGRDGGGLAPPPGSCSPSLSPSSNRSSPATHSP

RXRγ = biological target: T4, RXRγ (Homo sapiens, UniProt P48443); test: Nuclear retinoid receptor binding assay, competition with [3H]9-cis RA; conditions: 4-HBRCG up to 10^−4.5 M; data not shown
T4 sequence (P48443 1-463): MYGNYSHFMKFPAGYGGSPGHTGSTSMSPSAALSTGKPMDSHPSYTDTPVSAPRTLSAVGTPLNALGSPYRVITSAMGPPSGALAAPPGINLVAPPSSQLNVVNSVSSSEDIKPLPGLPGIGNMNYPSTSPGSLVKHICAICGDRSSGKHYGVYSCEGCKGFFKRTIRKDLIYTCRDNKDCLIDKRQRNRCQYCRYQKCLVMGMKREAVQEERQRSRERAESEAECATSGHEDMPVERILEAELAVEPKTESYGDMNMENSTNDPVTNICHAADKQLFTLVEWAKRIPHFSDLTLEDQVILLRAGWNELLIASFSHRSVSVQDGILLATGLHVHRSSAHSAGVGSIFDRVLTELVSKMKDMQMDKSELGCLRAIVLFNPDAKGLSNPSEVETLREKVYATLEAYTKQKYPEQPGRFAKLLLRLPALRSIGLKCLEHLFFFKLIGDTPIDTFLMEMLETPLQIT
Protocol: as §1

[1] = test system: MCF-7 human breast cancer cells; test: Growth inhibition of MCF-7 human breast cancer cells; type: cell-based; conditions: 10^−5 M, 8-day period
Protocol: Inhibition of MCF-7 human breast cancer cell growth over an 8-day period was used as a means to assess the activity of 4-HBRCG and the analog 4-HBRCGlucose.
Growth inhibition of MCF-7 human breast cancer cells. MCF-7 cells were obtained from the American Type Culture Collection, Manassas, Va. They were maintained in DMEM medium supplemented with 4 g/L glucose, 3.7 g/L sodium bicarbonate and 10% heat-inactivated fetal calf serum. Cells were passaged into 12-well plates, cultured for 24 hours, after which time they were dosed with vehicle (0.2% ethanol) or retinoids; medium was changed and fresh vehicle or retinoids were added daily. Cells were harvested and the number of live cells was assessed using fluorescein diacetate, which yields a fluorescent product upon cleavage by metabolically active cells. Using fluorescent microscopy, at least 200 cells/well were counted with a hemacytometer.

[2] = test system: DMBA-induced rat mammary tumor; test: DMBA-induced rat mammary tumor model, retinoid-containing diets; type: in vivo
Protocol: Preliminary evaluation of the mammary tumor chemotherapeutic activity of 4-HBRCG (7) was conducted, and its toxicity profile was also assessed. As previously described,^7, 12 tumor-bearing female rats (treated ca. 50 days earlier with 7,12-dimethylbenz(a)anthracene [DMBA]) were fed the control or retinoid-containing diets (RA (2), 4-HPR (3) or 4-HBRCG (7)) at 2 mmole/kg diet for 22 days.
(§2) Animal Studies: Mammary tumors were induced by intragastric intubation of 50-day old female Sprague-Dawley rats (Harlan Industries, Indianapolis, Ind.) with a single dose of 15 mg DMBA in 1.0 ml of sesame oil per rat. The rats were then maintained on a powdered Teklad 22/5 rodent chow diet (W) 8640 (Harlan Industries, Indianapolis, Ind.), and allowed food and water ad libitum. Four months later, rats which had developed palpable tumors were randomly assigned to the experimental groups (4 rats/group). The retinoid-treated groups were fed diets supplemented with 2 mmol/kg diet of atRA, 4-HPR, or 4-HBRCG, respectively. The retinoids were added to the diet in a vehicle consisting of 25 ml of ethanol: tricaprylin (1:4 v/v) plus 2% (w/v) of α-tocopherol as previously described.^9 This vehicle was also added to the control diet. The additives were blended into the chow diets using a Hobart food mixer. The diets were fed in stainless steel feeders designed with food hoppers. The food was replaced weekly with freshly prepared diets. Food consumption was determined once weekly, and from that the average daily consumption/rat was estimated. These diets were continuously fed for 22 days. Animals were also weighted weekly and monitored for general health status and signs of possible toxicity due to treatment.
(§3) Baseline measurement of initial tumor sizes, numbers and rat body weights were determined immediately before commencement of treatments, and final measurements were recorded just prior to sacrifice of the animals. Animals were palpated for tumors twice weekly and tumor diameters were measured weekly by a micrometer caliper. Tumor volumes were calculated using the formula [V= 4/3 πr^3] where r is one-half the mean of the sum of the largest diameter and the axis at right angle to it. All tumors as well as lungs, liver, kidney and femur were excised at the end of the experiment for chemical and histopathological evaluation. Blood samples were also taken from each animal for determination of plasma retinol and triglyceride levels.

[3] = Body weight change during retinoid feeding; type: in vivo, rat; conditions: 2 mmol/kg diet
Protocol: as §2, §3

[4] = Terminal plasma drug levels (plasma retinoid assay, HPLC); type: in vivo, rat; conditions: female, Sprague-Dawley, rat, plasma, oral; day 22 of treatment; 2 mmol/kg diet; ± SEM; read-out: Plasma retinoid concentration (terminal plasma drug level)
Protocol: Plasma Retinoid Assay. To 500 μL of plasma was added 150 μL of ethanol containing 0.75 μg of internal standard (N-(4-chlorophenyl) retinamide). After mixing 30 sec., 500 μL of ethyl acetate was added followed by 1 min. of mixing and centrifugation for 5 minutes at 1000 rpm in an IEC CL centrifuge. The ethyl acetate layer was removed and syringe filtered through a 0.45 um filter. The ethyl acetate extraction was repeated two more times. The combined extracts were evaporated and the residue reconstituted in 100 μL of methanol. The methanol extract (20 μL) was analyzed by HPLC on a Beckman Instruments model 127 instrument equipped with a model 166 UV detector. Chromatography was done on a precolumn equipped 250×4.6 mm Bechman Ultrasphere ODS column with an 85% methanol/water mobile phase (both containing 10 mM ammonium acetate) flowing at 1 mL/min. Analysis for both internal standard and retinol was conducted at 350 nm and internal standard recoveries and retinol levels were determined by comparison with standard curves, with adjustment of the retinol level based on recovery. Recoveries of internal standard averaged ca. 78%. […] In the 4-HPR treated group, plasma levels of this retinoid were evaluated simultaneously in the same samples as above. In order to avoid interfering substances, plasma treatment retinoid levels for RA and 4-HBRCG were measured using the above system and a step gradient of 75% methanol for 15 min. followed by 85% methanol for 40 minutes.

[5] = Plasma triglyceride measurement; type: in vivo, rat; conditions: 2 mmol/kg diet, 22 days; FIG. 2A
Protocol: Plasma Triglyceride Measurement. Bloods were drawn from anesthetized animals in the presence of EDTA as an anticoagulant, and the resulting plasma was used for the measurement of plasma “true” triglyceride levels using a kit from Sigma-Aldrich (Saint Louis, Mo.). Briefly, the total plasma triglyceride and glycerol concentrations were determined, and the glycerol component was subtracted from the total plasma triglyceride measurement to obtain the “true” serum triglyceride concentration.

[6] = Femur bone mineral content; type: in vivo, rat; conditions: end of feeding study; FIG. 2B
Text: Bone Mineral Content. The femur was disarticulated from the leg, and the adhering soft tissue was removed by dissection. Femurs were scanned using the Lunar PIXImus 2 system (Model X2608, General Electric using the LUNAR software version 1.45), and control measurements were made using the small animal quality control phantom. Femurs were scanned 5 times each with re-positioning at each measure. The average value of the bone mineral content (BMC) in grams for each animal is reported as one independent measure.

CYP26A1 mRNA = test: Induction of CYP26A1 mRNA in liver (Q-PCR); type: in vivo, rat; conditions: at sacrifice, retinoid-fed rats, 2 mmol/kg diet; FIG. 4
CYP26B1 mRNA = test: Induction of CYP26B1 mRNA in lung (Q-PCR); type: in vivo, rat; conditions: at sacrifice, retinoid-fed rats, 2 mmol/kg diet; data not shown
[7] = test system: nuclear retinoic acid receptors (RAR); conditions: cited from earlier work
[8] = number of individual tumors, 2 mmol/kg diet, 22 days

CC1=C(/C=C/C(C)=C/C=C/C(C)=C/C(=O)Cc2ccc(C[C@@H]3O[C@H](CO)[C@@H](O)[C@H](O)[C@H]3O)cc2)C(C)(C)CCC1 [4-HBRCGlucose, 2,6-Anhydro-7-deoxy-7-[4-(retinoylmethyl)-phenyl]-D-glycero-D-gulo-heptinol]
Binding to RARβ (RARβ): binds poorly
Binding to RARγ (RARγ): binds poorly
Binding to RARα (RARα): binds poorly
Competition for [3H]9-cis RA binding to RXR (RXRγ): binds poorly
State of MCF-7 cells at end of assay [1]: the majority of the MCF-7 cells were dead at the end of the assay
Effect on number of live MCF-7 cells ([1]; FIG. 5): reduction in the number of live cells

CC1=C(/C=C/C(C)=C/C=C/C(C)=C/C(=O)O)C(C)(C)CCC1 [Retinoic acid (2), all-trans retinoic acid]
% Change in tumor volume from baseline ([2]; 2 mmol/kg diet for 22 days): −38 ^d %
Final tumor volume ([2]; 2 mmol/kg diet for 22 days, mean ± SEM): 0.05 ± 0.02 cm^3
Initial tumor volumes ([2]; baseline before treatment, mean ± SEM): 0.08 ± 0.03 cm^3
Complete regression (tumors that totally disappeared) [2, 8]: 1
No effect [2, 8]: 1
Partial regression (tumors with 25-75% decrease in volume) [2, 8]: 8
New tumors ([2]; number of tumors, 2 mmol/kg diet, 22 days): 0
Effect on normal body weight gain ([3]; feeding period): significant reduction in normal body weight gain
% Weight change ([3]; relative to baseline body weight over 22 days): +0.2 ^d %
concentration at 22 day [4]: 300 ± 100 ng/mL
Effect on serum triglyceride concentration [5]: dramatically increased serum triglyceride concentration
Effect on femur bone mineral content vs control [6]: significant reduction in femur BMC
Induction of CYP26A1 mRNA in liver (CYP26A1 mRNA): 67 fold above control
Induction of CYP26B1 mRNA in lung (CYP26B1 mRNA): 46 fold above control

CC1=C(/C=C/C(C)=C/C=C/C(C)=C/C(=O)Nc2ccc(O[C@@H]3O[C@H](C(=O)O)[C@@H](O)[C@H](O)[C@H]3O)cc2)C(C)(C)CCC1 [compound 5, N-(4-hydroxyphenyl) retinamide-O-glucuronide]
Affinity for binding to nuclear RAR relative to RA [7]: low affinity relative to RA

CC1=C(/C=C/C(C)=C/C=C/C(C)=C/C(=O)Nc2ccc(CC3OC(C(=O)O)C(O)C(O)C3O)cc2)C(C)(C)CCC1 (stereo not shown) [compound 6, N-(4-hydroxyphenyl) retinamide-C-glucuronide]
Affinity for binding to nuclear RAR relative to RA [7]: low affinity relative to RA
